From article PMC6010070, “Antinociceptive potency of a fluorinated cyclopeptide Dmt-c[D-Lys-Phe-p-CF3-Phe-Asp]NH2” (Journal of Enzyme Inhibition and Medicinal Chemistry, 2018)
Read-outs that look alike come from different tables or passages of the source. Bridge positions count the residues as written; N and C are the ends. Square brackets hold non-standard residues; d marks the D form. Peptide text beside a SMILES is read from it. Phe(4-CF3) = N[C@@H](Cc1ccc(C(F)(F)F)cc1)C(=O)O; Dmt = Cc1cc(O)cc(C)c1C[C@H](N)C(=O)O

How the values were obtained:
[1] = for BBB permeability Pe ± SD: brain polar lipid extract, 200 µM, 4 h, room temperature; for Classification (BBB permeation): classified by Pe
Protocol: Parallel Artificial Membrane Permeability Assay (PAMPA) was performed using Multiscreen Filter Plate and Multiscreen Transport Receiver Plate (Merck Millipore, Warsaw, Poland). Tested, as well as reference compounds, were dissolved in 0.1 M PBS buffer containing 20% of ethanol, to the final concentration of 200 µM. A 300 µl aliquots of 0.1 M PBS solution (pH = 7.4) was dispensed into the wells of the […]. Then 1% n-dodecane solution of the brain polar lipid extract (Avanti Polar Lipids; Sigma Aldrich, Poznan, Poland) was prepared to investigate the blood–brain barrier (BBB) permeability. Aliquots of the obtained lipid solutions (5 µl) were dispensed on the membranes of wells of the donor plate and left to dry. […] A complete system, consisting of the receiver plate with inserted donor plate, was incubated at room temperature for 4 h, shaking at 40 g, to guarantee good solvent mixing.
The ability of the tested compounds to permeate the artificial membranes was classified according to the literature[33] as:
Artificial membrane permeability was assessed in the PAMPA assay and the permeability coefficient (Pe) was calculated from the following equation: Pe=C×-ln1-×Ca/Cr where C=Vd ×Va /(Vd+Va)×p×t
Membrane retention was analysed using mass balance between a compound left in the donor and acceptor compartments and calculated using the following equation: MB=Ca×Va+(Cd×Vd)/Cinitial×Vd where

Male CD-1 mice = test: Hot-plate test after i.c.v. administration; format: in vivo; settings: for ED50 (jumping response): mice
Text: Male CD-1 mice (Harlan, Italy) weighing 25–30 g were used to determine the anti-nociceptive activity of the cyclopeptides in the hot-plate test after i.c.v. injection. Animal studies and research protocols were approved by the Service for Biotechnology and Animal Welfare of the Istituto Superiore di Sanità and authorized by the Italian Ministry of Health, according to Legislative Decree 26/14 (protocol number: 198/2013-B, 14 August 2013), which implemented the European Directive 2010/63/EEC on laboratory animal protection. Animal welfare was routinely checked by veterinarians from the Service for Biotechnology and Animal Welfare.
The hot-plate test was performed as described earlier. The intracerebroventricular (i.c.v.) injections were performed in a volume of 10 µl/animal, in the left brain ventricle of manually immobilized mice with a Hamilton microsyringe (50 µl) connected to a needle (diameter 0.5 mm). Peptides were also administrated in mice intravenously (i.v.) in a volume of 1 ml/kg. All compounds used for i.c.v. and i.v. administration were dissolved in saline. A transparent plastic cylinder (14 cm diameter, 31 cm height) was used to confine the mouse on the heated (55 ± 0.5 °C) surface of the plate. The animals were placed on the hot plate 5 min after the i.c.v. injection of saline (control) or peptides and the latencies to paw licking, rearing and jumping were measured at 5, 10, 20, 30, 45, 60, 90, and 120 min after administration of a peptide. A cut-off time of 240 s was used to avoid tissue injury. The percentage of the maximal possible effect (%MPE) was calculated as: %MPE = (t1 − t0)/(t2 − t0) × 100, where t0: control latency, t1: test latency, and t2: cut-off time. The median antinociceptive dose (ED50) was calculated according to the method of Litchfield and Wilcox[36].

Kinetic solubility assay = format: physicochemical; settings: PBS buffer, pH 7.4
Protocol: Kinetic solubility assay was performed using Multiscreen HTS Vacuum Manifold (Merck Millipore, Warsaw, Poland). Compounds for this test were prepared as 10 mM stock solutions in DMSO and diluted in a standard PBS buffer (pH = 7.4), to the final concentrations of 0.5 mM. The solutions were applied into a 96-well filter plate and incubated for 90 min at room temperature, while shaking at 40 g and then filtrated. The concentration of each compound was determined on the basis of the prepared calibration curve using the UV–VIS spectrophotometric method. According to the absorption spectra of the compounds the wavelength used for the measurements was 280 nm for both, C-36 and F-81.

[2] = set-up: method as in PMID 19995587; settings: i.v. ref 35; cited from earlier work
kappa-opioid receptor = system: kappa-opioid receptor; set-up: method as in PMID 26005537, PMID 25047937; settings: cited from earlier work
Male balb/c mice [3] = test: Mustard oil induced abdominal pain in mice with acute TNBS-induced colitis; format: in vivo; settings: mustard oil i.c., 1 mg/kg i.p., counted for 20 min, control group 29.28 ± 2.52
Protocol: (§1) Male balb/c mice (Animal Facility of Nofer Institute of Occupational Medicine, Lodz, Poland) weighing 22–25 g were used to determine the anti-inflammatory and anti-nociceptive activity of cyclopeptides after i.p. administration. All procedures and protocols used in this study were approved by the Local Ethical Committee for Animal Research (protocol number: 20/ŁB708/2014, 26 May 2014). The study was carried out in accordance with the recommendations described in the Guide for the Care and Use of Laboratory Animals of the Medical University of Lodz, Poland. All experimental procedures were performed in accordance with the current guidelines for the care of laboratory animals (including the use of the 3Rs procedures) and in accordance with the ARRIVE guidelines.
To assess the anti-nociceptive effect of F-81 in mice with acute colitis, intestinal inflammation was induced by TNBS instillation three days prior to the experiment. Abdominal pain was induced in inflamed mice by the i.c. injection of 1% mustard oil (MO, allyl isothiocyanate) in 70% EtOH in saline. Mice were separated into clear plastic boxes (20 × 20 × 15 cm) and allowed a 5 min recovery after MO administration. Spontaneous behaviours (licking and stretching the abdomen, squashing of lower abdomen against the floor, and abdominal retraction) were observed and counted for 20 min.

Male balb/c mice [4] = test: Histology, microscopic total damage score of distal colon (prevention model of colitis); format: in vivo; settings: 1 mg/kg
Protocol: Distal colon sections from the preventive mouse model of colitis were stapled flat, mucosal side-up, onto cardboard strips and fixed in 10% formalin for 24 h at 4 °C. Samples were dehydrated, embedded in paraffin, sectioned at 5 µm, and mounted onto slides. The sections were then stained with haematoxylin and eosin and Motic AE31 microscope (Ted Pella, Sweden) photographs were taken using a digital imaging system consisting of a digital camera (Moticam 2300, Ted Pella, Sweden) and image analysis software (Motic Images Plus 2.0, Germany).
The microscopic total damage score was assessed using the following parameters: the goblet cell depletion (presence = 1, absence = 0), crypt abscesses (presence = 1, absence = 0), the destruction of mucosal architecture (normal = 1, moderate = 2, extensive = 3), the extent of muscle thickening (normal =1, moderate = 2, extensive = 3), and the presence and degree of cellular infiltration (normal = 1, moderate = 2, transmural = 3).

Male balb/c mice [5] = test: Semi-chronic model of TNBS-induced colitis (macroscopic damage, MPO activity); format: in vivo
Protocol: as §1
(§2) The experimental colitis was induced by intracolonic (i.c.) administration of 2,4,6-trinitrobenzenesulfonic acid (TNBS). Mice were anesthetized with isoflurane (Aerrane, Baxter, Deerfield, IL) and TNBS at the dose of 4 mg per mouse (dissolved in 30% EtOH in saline) in the final volume of 150 µl, was injected into the colon through a catheter inserted 3 cm proximally from the anus. Mice were then maintained in an inclined position for 1 min to ensure the proper distribution of the inductor in the colon. Next, recovery was allowed with food and water supplied. Control animals received vehicle alone (30% ethanol in saline; TNBS replaced with equivolume water).
In the semi-chronic model, the curative potential of F-81 was tested. TNBS was administered on day 0 and from day 3 to day 6 the F-81 treatment (1 mg/kg in saline, 100 µl, i.p) was performed. On day 7, mice were sacrificed and the evaluation of colonic damage was performed.
(§3) To perform the macroscopic damage score, the colon was removed immediately after euthanasia, opened longitudinally, rinsed with phosphate buffered saline (PBS), and examined using an established semiquantitative scoring system by adding individual scores for ulcer, colonic shortening, wall thickness, and the presence of haemorrhage, faecal blood, and diarrhoea, as described before. For scoring ulcer and colonic shortening the following scale was used: ulcer: 0.5 points for each 0.5 cm; shortening of the colon: 1 point for >15%, 2 points for >25% (based on a mean length of the colon in untreated mice). The wall thickness was measured in millimetres, a thickness of n mm corresponded to n scoring points. The presence of haemorrhage, faecal blood, or diarrhoea increased the score by 1 point for each additional feature.
The colon fragments (20–30 mg) were gently isolated from mice after total macroscopic damage score assessment, immediately washed with PBS, and homogenized in hexadecyltrimethylammonium bromide (HTAB) buffer (0.5% HTAB in 50 mM potassium phosphate buffer, pH 6.0; 50 mg of tissue/ml) using Ika Ultra Turrax Disperser T25 Digital 2 (Sigma Aldrich, Poznan, Poland). The homogenates were centrifuged (20 min, 13,200g, 4 °C) and the supernatants were transferred to the new test tubes. […] The absorbance was measured at 450 nm after 30 and 60 s (iMARK Microplate Reader, Biorad, UK). […]
(§4) The MPO activity was expressed in units/g of a wet tissue. One unit is determined as a quantity of enzyme able to convert 1 µmol of H2O2 to water in 1 min at room temperature. MPO activity units were calculated from the standard curve using purified peroxidase enzyme.

Male balb/c mice [6] = test: Prevention mouse model of TNBS-induced colitis (macroscopic damage, MPO activity); format: in vivo; settings: 1 mg/kg i.p. once daily
Protocol: as §1, §2
In the prevention mouse model of colitis, F-81 was injected intraperitoneally (i.p.) at the dose of 1 mg/kg in saline, in the volume of 100 µl, once daily, for 3 days, 15 min prior to TNBS administration. Mice were weighted daily and monitored for clinical symptoms of colitis, including diarrhoea and bloody stool. On day 4, mice were sacrificed by rapid cervical dislocation and the macroscopic damage score was assessed.
as §3
The colon fragments (20–30 mg) were gently isolated from mice after total macroscopic damage score assessment, immediately washed with PBS, and homogenized in hexadecyltrimethylammonium bromide (HTAB) buffer (0.5% HTAB in 50 mM potassium phosphate buffer, pH 6.0; 50 mg of tissue/ml) using Ika Ultra Turrax Disperser T25 Digital 2 (Sigma Aldrich, Poznan, Poland). The homogenates were centrifuged (20 min, 13,200g, 4 °C) and the supernatants were transferred to the new test tubes. Then, 7 µl portions of supernatants were added on a 96-well plate, followed by 200 µl of 50 mM potassium phosphate buffer (pH = 6.0), containing 0.167 mg/ml of O-dianisidine hydrochloride and 0.05 µl of 1% H2O2. The absorbance was measured at 450 nm after 30 and 60 s (iMARK Microplate Reader, Biorad, UK). All measurements were done in triplicates.
as §4

[7] = read-out: Solubility Mean (mg/ml)

## Cn1c(=O)c2[nH]cnc2n(C)c1=O [Theophylline, theophylline, reference compound]
[1]; PAMPA, pH 7.4
  Mean (%) Mass balance ± SD: 98.21 ± 3.65%

## Cc1cc(O)cc(C)c1C[C@H](N)C(=O)N[C@@H]1CCCCNC(=O)C[C@@H](C(N)=O)NC(=O)[C@H](Cc2ccccc2)NC(=O)[C@H](Cc2ccccc2)NC1=O [Peptide C-36, Dmt-c[D-Lys-Phe-Phe-Asp]NH2] (H-[Dmt][dK]FFD-NH2; lactam 2-5; N-terminus assumed)
[1]; PAMPA, pH 7.4
  BBB permeability Pe ± SD: ≤0.58
[1]; PAMPA-BBB
  Classification (BBB permeation): Low permeation (Pe < 2.0 – low permeation)
[1]; PAMPA-BBB, membrane retention
  Mean (%) Mass balance ± SD: 97.87 ± 1.69%
Male CD-1 mice; hot-plate test, i.c.v.
  ED50 (jumping response): 57.78 ng
Kinetic solubility assay; read-out: Solubility Mean
  solubility at 90 min: ≥ 500 µM
Kinetic solubility assay; [7]
  solubility at 90 min: ≥ 0.36 mg/mL

## Tyr-c[D-Lys-Phe-Phe-Asp]NH2
[2]
  Ability to reach the brain after i.v. administration: could reach the brain after i.v. administration

## Cc1cc(O)cc(C)c1C[C@H](N)C(=O)N[C@@H]1CCCCNC(=O)C[C@@H](C(N)=O)NC(=O)[C@H](Cc2ccc(C(F)(F)F)cc2)NC(=O)[C@H](Cc2ccccc2)NC1=O [Peptide F-81, Dmt-c[D-Lys-Phe-p-CF3-Phe-Asp]NH2] (H-[Dmt][dK]F[Phe(4-CF3)]D-NH2; lactam 2-5 (inferred))
[1]; PAMPA, pH 7.4
  BBB permeability Pe ± SD: ≤0.58
[1]; PAMPA-BBB
  Classification (BBB permeation): Low permeation (Pe < 2.0 – low permeation)
[1]; PAMPA-BBB, membrane retention
  Mean (%) Mass balance ± SD: 95.75 ± 1.43%
Male CD-1 mice; F-81 10 ng/animal i.c.v., NTL 1 µg/animal
  Anti-nociceptive effect with co-administered naltrindole (delta antagonist): did not modify
Male CD-1 mice; F-81 10 ng/animal i.c.v., nor-BNI 5 µg/animal i.c.v.
  Anti-nociceptive effect with co-administered norbinaltorphimine (kappa antagonist): did not modify
Male CD-1 mice; F-81 10 ng/animal i.c.v., β-FNA 1 µg/animal
  Anti-nociceptive effect with co-administered β-funaltrexamine (mu antagonist): blocked
Male CD-1 mice; hot-plate test, i.c.v., from the ED50 values
  Anti-nociceptive potency relative to C-36: approximately threefold
Male CD-1 mice; hot-plate test, i.c.v.
  ED50 (jumping response): 17.27 ng
kappa-opioid receptor
  kappa-affinity: significant kappa-affinity
Male balb/c mice [3]
  Number of spontaneous pain behaviours: 6.36 ± 1.98
Male balb/c mice [4]
  Microscopic score: significantly improved
Male balb/c mice [5]; 1 mg/kg i.p.
  Colon thickness, width, or length versus TNBS-treated group: No differences
Male balb/c mice [5]; 1 mg/kg i.p. day 3 to day 6, TNBS group 4.15 ± 0.54
  Macroscopic damage score: 2.18 ± 0.40
Male balb/c mice [5]; 1 mg/kg i.p., TNBS group 1.30 ± 0.12
  Ulcer score: 0.92 ± 0.83
Male balb/c mice [5]; 1 mg/kg i.p., TNBS group 18.49 ± 3.95
  Inflammation area: 12.23 ± 1.56
Male balb/c mice [5]; colon tissue, 1 mg/kg i.p., TNBS group 8.26 ± 0.15
  MPO activity: 7.88 ± 0.24 units/g of a wet tissue
Male balb/c mice [6]; 3 days, TNBS group 5.83
  Macroscopic damage score: 4.07
Male balb/c mice [6]; TNBS group 1.08 ± 0.12, no difference
  Intestinal wall thickness: 0.95 ± 0.07 mm
Male balb/c mice [6]; TNBS group 2.06 ± 0.22
  Ulcer score: 1.43 ± 0.17
Male balb/c mice [6]; TNBS group 7.91 ± 0.23
  Colon width: 6.09 ± 0.53
Male balb/c mice [6]; TNBS group 8.01 ± 0.39, no difference
  Colon length: 8.23 ± 0.24
Male balb/c mice [6]; TNBS group 24.42 ± 2.92
  Inflammation area: 19.56 ± 2.16
Male balb/c mice [6]; colon tissue, TNBS group 11.82 ± 1.72
  MPO activity: 3.65 ± 0.87 units/g of a wet tissue
Kinetic solubility assay; read-out: Solubility Mean
  solubility at 90 min: 345 µM
Kinetic solubility assay; [7]
  solubility at 90 min: 0.27 mg/mL
